Tests used:
[1] = tested on: JHH7 hepatocellular carcinoma cells; test: Methylene Blue Staining proliferation assay (MBS), JHH7; format: cell-based
Description: (§1) The effect of compounds on cell proliferation is assessed using HuH-7 hepatocellular carcinoma cells obtained from the Japanese Collection of Research Bioresources Cell Bank (Cat#JCRB0403) and cultured in the vendor-recommended medium (DMEM high glucose (Amimed Cat#1-26F01-I), 10% foetal calf serum (Invitrogen Cat#16140-071), 1 mM sodium pyruvate (Amimed Cat#5-60F00-H), 1× Penicillin/Streptomycin (Amimed Cat#4-01F00-H)) at 37° C. in a humidified 5% CO2 incubator. Specifically, 5000 cells/well were seeded in 96-well tissue culture plates (TPP Cat#92696) in a total media volume of 100 μl/well and increasing compound dilutions or DMSO were added 24 hours thereafter in triplicates. 72 hours after compound addition, cells were fixed by adding 25 μL/well of 20% glutaraldehyde (Sigma Aldrich Cat#G400-4) and incubated for 10 minutes at room temperature. Cells were washed three times with H2O, 200 μL/well and stained with 100 μL/well 0.05% methylene blue (ABCR GmbH Cat#AB117904) for 10 minutes at room temperature. Cells were washed 3 times with H2O, 200 μL/well and then lysed by adding 200 μL/well of 3% HCl (Fluka Cat#84422) for 30 minutes at room temperature with shaking. Optical density was measured at A650 nm.
(§2) The effect of compounds on cell proliferation using Hep 3B2.1-7 hepatocellular carcinoma cells, FU97 gastric cancer cells, JHH7 hepatocellular carcinoma cells or JHH6 hepatocellular carcinoma cells is assessed as above. Hep 3B2.1-7, FU97, JHH7 or JHH6 are obtained from the Japanese Collection of Research Bioresources Cell Bank. Hep 3B2.1-7 cells are cultured in EMEM+10% FCS+1 mM Na pyruvate+2 mM L-glutamine and 2000 cells/well are seeded for the proliferation assay. FU97 cells are cultured in DMEM high glucose+10% FCS+1 mM Na pyruvate+4 mM L-glutamine+1×ITS and 2000 cells/well are seeded for the proliferation assay. JHH6 and JHH7 cells are cultured in William's E+10% FCS+2 mM L-glutamine and 3000 cells are seeded for the proliferation assay.

[2] = tested on: Hep 3B2.1-7 hepatocellular carcinoma cells; test: Methylene Blue Staining proliferation assay (MBS), Hep 3B2.1-7; format: cell-based; settings: Homo sapiens, Hep3B, Hep 3B2.1-7 cells
Description: (§3) 72 hours after compound addition, cells were fixed by adding 25 μL/well of 20% glutaraldehyde (Sigma Aldrich Cat#G400-4) and incubated for 10 minutes at room temperature. Cells were washed three times with H2O, 200 μL/well and stained with 100 μL/well 0.05% methylene blue (ABCR GmbH Cat#AB117904) for 10 minutes at room temperature. […] Optical density was measured at A650 nm.
as §2

[3] = tested on: HuH-7 hepatocellular carcinoma cells; test: Methylene Blue Staining proliferation assay (MBS), HuH-7; format: cell-based; settings: Homo sapiens, HuH-7 cells, 72 hours after compound addition, read-out: HUH7 proliferation (nM) MBS
Description: Methylene Blue Staining Proliferation Assay (MBS):
as §3

[4] = tested on: HuH-7 hepatocellular carcinoma cells; test: CellTiter Glo (CTG) assay, HuH-7; settings: Homo sapiens, Huh-7, 72 h, read-out: HUH7 proliferation (nM) CTG
Description: CellTiter Glo (CTG) Assay:
Compound-mediated suppression of cell proliferation/viability is assessed by quantification of cellular ATP levels using the CellTiter-Glo (CTG) reagent (Promega, Cat#G7573). […] For data analysis, the assay background value determined in wells containing medium, but no cells, is subtracted from all data points. […] The effect of a particular test compound concentration on cell proliferation/viability is expressed as percentage of the background- and day 0-corrected luminescence reading obtained for cells treated with vehicle only (DMSO, 0.1% f.c.), which is set as 100%, whereas the luminescence reading for wells containing medium only, but no cells, is set as −100%. Compound concentrations leading to half-maximal growth inhibition (GI50) are determined using standard four parameter curve fitting (XLfit 5.2., IDBS, UK).

[5] = tested on: FU97 gastric cancer cells; test: Methylene Blue Staining proliferation assay (MBS), FU97; format: cell-based
Description: as §1, §2

| SMILES | IC50 [1] | IC50 [2] | IC50 [3] | IC50 [4] | IC50 [5] |
| --- | --- | --- | --- | --- | --- |
| CC(=O)N(C)Cc1cc2c(nc1C=O)N(C(=O)Nc1ccc(C#N)cn1)CCC2 [Example 68, N-(5-cyanopyridin-2-yl)-7-formyl-6-((N-methylacetamido)methyl)-3,4-dihydro-1,8-naphthyridine-1(2H)-carboxamide] | > 3000 nM | > 3000 nM | – | – | – |
| COCCNc1cc(NC(=O)N2CCCc3cc(CN4CCN(C)CC4=O)c(C=O)nc32)ncc1C#N [Example 83, N-(5-cyano-4-((2-methoxyethyl)amino)pyridin-2-yl)-7-formyl-6-((4-methyl-2-oxopiperazin-1-yl)methyl)-3,4-dihydro-1,8-naphthyridine-1(2H)-carboxamide] | 9 nM | 1 nM | 12 nM | 60.9 nM | 23 nM |
| COCCOc1cc(NC(=O)N2CCCc3cc(CO)c(C=O)nc32)ncc1C#N [Example 39, N-(5-cyano-4-(2-methoxyethoxy)pyridin-2-yl)-7-formyl-6-(hydroxymethyl)-3,4-dihydro-1,8-naphthyridine-1(2H)-carboxamide] | > 3000 nM | – | 123 nM | 569 nM | – |
| N#Cc1ccc(NC(=O)N2CCCc3cc(CO)c(C=O)nc32)nc1 [Example 27, N-(5-cyanopyridin-2-yl)-7-formyl-6-(hydroxymethyl)-3,4-dihydro-1,8-naphthyridine-1(2H)-carboxamide] | > 3000 nM | – | – | – | – |
| COCCOc1cc(NC(=O)N2CCCc3cc(C(F)F)c(C=O)nc32)ncc1C#N [Example 63, N-(5-cyano-4-(2-methoxyethoxy)pyridin-2-yl)-6-(difluoromethyl)-7-formyl-3,4-dihydro-1,8-naphthyridine-1(2H)-carboxamide] | > 3000 nM | – | – | – | – |
| N#Cc1cnc(NC(=O)N2CCCc3cc(CO)c(C=O)nc32)cc1O[C@H]1CCOC1 [Example 50, (S)—N-(5-cyano-4-((tetrahydrofuran-3-yl)oxy)pyridin-2-yl)-7-formyl-6-(hydroxymethyl)-3,4-dihydro-1,8-naphthyridine-1(2H)-carboxamide] | 484 nM | – | 270 nM | – | 234 nM |

Other lines, results leading:

| IC50 [1] | IC50 [2] | IC50 [3] | IC50 [4] | IC50 [5] | SMILES |
| --- | --- | --- | --- | --- | --- |
| – | – | 82 nM | 142 nM | – | COCCOc1cc(NC(=O)N2CCCc3cc(CN4CCN(C)CC4=O)c(C=O)nc32)ncc1C#N [Example 101, N-(5-cyano-4-(2-methoxyethoxy)pyridin-2-yl)-7-formyl-6-((4-methyl-2-oxopiperazin-1-yl)methyl)-3,4-dihydro-1,8-naphthyridine-1(2H)-carboxamide] |
| 150 nM | – | – | 168 nM | 96 nM | COCCNc1cc(NC(=O)N2CCCc3cc(CO)c(C=O)nc32)ncc1C#N [Example 80, N-(5-cyano-4-((2-methoxyethyl)amino)pyridin-2-yl)-7-formyl-6-(hydroxymethyl)-3,4-dihydro-1,8-naphthyridine-1(2H)-carboxamide] |
| – | 5 nM | – | 17.8 nM | – | COC[C@@H](C)Oc1cc(NC(=O)N2CCCc3cc(CN4CCN(C)CC4=O)c(C=O)nc32)ncc1C#N [Example 205, (R)—N-(5-cyano-4-((1-methoxypropan-2-yl)oxy)pyridin-2-yl)-7-formyl-6-((4-methyl-2-oxopiperazin-1-yl)methyl)-3,4-dihydro-1,8-naphthyridine-1(2H)-carboxamide] |
| – | – | – | 38 nM | – | CC(C)Oc1cc(NC(=O)N2CCCc3cc(CN4CCN(C)CC4=O)c(C=O)nc32)ncc1C#N [Example 92, N-(5-cyano-4-isopropoxypyridin-2-yl)-7-formyl-6-((4-methyl-2-oxopiperazin-1-yl)methyl)-3,4-dihydro-1,8-naphthyridine-1(2H)-carboxamide] |
